Test results taken from ChEMBL document CHEMBL2157874, “First total synthesis of prasinic acid and its anticancer activity” (Bioorg Med Chem Lett, 2012).

Columns and labels:
ACHN = assay: Cytotoxicity against human ACHN cells after 48 hrs by modified propidium iodide assay; type: functional, cell-based
PANC-1 = assay: Cytotoxicity against human PANC1 cells after 48 hrs by modified propidium iodide assay; type: functional, cell-based; conditions: PANC-1, 48 h
Calu-1 = assay: Cytotoxicity against human Calu1 cells after 48 hrs by modified propidium iodide assay; type: functional, cell-based; conditions: Calu-1, 48 h
NCI-H460 = assay: Cytotoxicity against human H460 cells after 48 hrs by modified propidium iodide assay; type: functional, cell-based; conditions: NCI-H460, 48 h
HCT-116 = assay: Cytotoxicity against human HCT116 cells after 48 hrs by modified propidium iodide assay; type: functional, cell-based; conditions: HCT-116, 48 h
MCF-10A = assay: Cytotoxicity against human MCF10A cells after 48 hrs by modified propidium iodide assay; type: cell-based

CCCCCCCc1cc(OC(=O)c2c(O)cc(O)cc2CCCCCCC)cc(O)c1C(=O)O [PRASINIC ACID]
IC50 (ACHN): 8.2 µM
IC50 (PANC-1): 8.5 µM
IC50 (Calu-1): 4.3 µM
IC50 (NCI-H460): 9.1 µM
IC50 (HCT-116): 7.8 µM
IC50 (MCF-10A): > 30 µM
